Data: ChEMBL document CHEMBL1777770, “Design, synthesis, inhibitory activity, and binding mode study of novel DNA methyltransferase 1 inhibitors” (Bioorg Med Chem Lett, 2010)
Active and inactive are the calls of the source. No cut-off for these calls is given here.

Columns and labels:
[1] = molecular target: DNA (cytosine-5)-methyltransferase 1 (Homo sapiens) (UniProt P26358); test: Inhibition of human DNA methyltransferase using S-adenosyl-L-methionine substrate at 10 to 1000 uM measured after 60 mins
Sequence of DNA (cytosine-5)-methyltransferase 1 (Homo sapiens) (P26358 whole entry): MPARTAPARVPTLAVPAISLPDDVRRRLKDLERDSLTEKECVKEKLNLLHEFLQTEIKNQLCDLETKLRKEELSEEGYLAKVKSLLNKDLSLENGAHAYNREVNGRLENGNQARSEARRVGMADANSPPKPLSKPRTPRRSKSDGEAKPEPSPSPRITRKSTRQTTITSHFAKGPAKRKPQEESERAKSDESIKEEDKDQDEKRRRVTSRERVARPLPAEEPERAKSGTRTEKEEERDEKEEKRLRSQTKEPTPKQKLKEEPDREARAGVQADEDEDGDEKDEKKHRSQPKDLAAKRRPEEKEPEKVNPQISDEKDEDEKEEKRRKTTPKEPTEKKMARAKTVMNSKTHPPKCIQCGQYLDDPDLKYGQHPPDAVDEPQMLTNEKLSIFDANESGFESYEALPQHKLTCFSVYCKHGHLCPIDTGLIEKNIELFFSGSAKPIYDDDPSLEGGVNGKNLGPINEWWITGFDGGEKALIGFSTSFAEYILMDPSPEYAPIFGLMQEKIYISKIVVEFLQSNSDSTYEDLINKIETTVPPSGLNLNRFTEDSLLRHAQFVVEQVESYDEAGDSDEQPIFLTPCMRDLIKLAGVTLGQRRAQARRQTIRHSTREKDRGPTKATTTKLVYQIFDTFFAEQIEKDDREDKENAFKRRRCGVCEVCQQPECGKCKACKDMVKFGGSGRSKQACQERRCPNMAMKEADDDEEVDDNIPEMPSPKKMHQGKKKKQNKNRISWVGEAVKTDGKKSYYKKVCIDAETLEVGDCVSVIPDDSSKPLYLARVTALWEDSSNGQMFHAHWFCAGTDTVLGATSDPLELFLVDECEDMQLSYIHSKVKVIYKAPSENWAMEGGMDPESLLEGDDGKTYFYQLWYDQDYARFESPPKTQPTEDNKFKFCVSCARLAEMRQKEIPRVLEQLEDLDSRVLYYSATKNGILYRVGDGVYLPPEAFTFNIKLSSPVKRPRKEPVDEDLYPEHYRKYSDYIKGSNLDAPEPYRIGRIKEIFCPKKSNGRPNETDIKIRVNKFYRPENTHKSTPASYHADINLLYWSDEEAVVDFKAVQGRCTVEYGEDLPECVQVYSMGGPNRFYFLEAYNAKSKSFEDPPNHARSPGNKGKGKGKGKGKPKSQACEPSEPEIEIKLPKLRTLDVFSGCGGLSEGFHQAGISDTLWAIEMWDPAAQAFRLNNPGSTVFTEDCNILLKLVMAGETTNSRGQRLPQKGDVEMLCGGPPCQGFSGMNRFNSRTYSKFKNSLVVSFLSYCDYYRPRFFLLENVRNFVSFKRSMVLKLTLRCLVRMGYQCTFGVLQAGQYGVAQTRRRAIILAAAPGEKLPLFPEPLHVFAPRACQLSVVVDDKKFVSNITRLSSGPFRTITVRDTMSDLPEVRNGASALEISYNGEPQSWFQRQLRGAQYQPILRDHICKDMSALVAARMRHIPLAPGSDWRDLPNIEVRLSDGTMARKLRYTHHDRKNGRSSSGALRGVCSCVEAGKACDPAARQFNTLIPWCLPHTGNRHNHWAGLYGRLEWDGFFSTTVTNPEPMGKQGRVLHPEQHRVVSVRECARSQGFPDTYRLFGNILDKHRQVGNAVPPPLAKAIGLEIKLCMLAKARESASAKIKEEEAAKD

[2] = molecular target: DNA (cytosine-5)-methyltransferase 1 (Homo sapiens) (UniProt P26358); test: Inhibition of human DNA methyltransferase using S-adenosyl-L-methionine substrate at 10 uM measured after 60 mins
[3] = molecular target: DNA (cytosine-5)-methyltransferase 1 (Homo sapiens) (UniProt P26358); test: Inhibition of human DNA methyltransferase using S-adenosyl-L-methionine substrate at 1000 uM measured after 60 mins

| Structure (SMILES) | inhibition [1] | inhibition [2] | inhibition [3] |
| --- | --- | --- | --- |
| CC1=CC(=O)N([C@@H](Cc2c[nH]c3ccccc23)C(=O)O)C1=O | Active |  |  |
| O=C(O)[C@H](Cc1c[nH]c2ccccc12)N1C(=O)C=CC1=O | Active | 60% |  |
| O=C(O)[C@H](Cc1c[nH]c2ccccc12)N1C(=O)c2ccccc2C1=O |  |  | 34% |
| O=C(O)[C@H](Cc1c[nH]c2ccccc12)N1C(=O)CCC1=O | inactive |  |  |
| O=C(O)[C@H](Cc1c[nH]c2ccccc12)N1C(=O)C=C(c2ccccc2)C1=O | Active |  |  |
| CC1=C(C)C(=O)N([C@@H](Cc2c[nH]c3ccccc23)C(=O)O)C1=O | Active |  |  |
